For orientation: EC90 means the point of the concentration-response curve where the effect stands at 90%. Usually EC50 stands for the concentration that produces a half-maximal response.

In data set [1] the target is T1, AhR (Homo sapiens, UniProt P35869).
T1 construct: host or cells: human HepG2 cells
T1 sequence (P35869 11-848): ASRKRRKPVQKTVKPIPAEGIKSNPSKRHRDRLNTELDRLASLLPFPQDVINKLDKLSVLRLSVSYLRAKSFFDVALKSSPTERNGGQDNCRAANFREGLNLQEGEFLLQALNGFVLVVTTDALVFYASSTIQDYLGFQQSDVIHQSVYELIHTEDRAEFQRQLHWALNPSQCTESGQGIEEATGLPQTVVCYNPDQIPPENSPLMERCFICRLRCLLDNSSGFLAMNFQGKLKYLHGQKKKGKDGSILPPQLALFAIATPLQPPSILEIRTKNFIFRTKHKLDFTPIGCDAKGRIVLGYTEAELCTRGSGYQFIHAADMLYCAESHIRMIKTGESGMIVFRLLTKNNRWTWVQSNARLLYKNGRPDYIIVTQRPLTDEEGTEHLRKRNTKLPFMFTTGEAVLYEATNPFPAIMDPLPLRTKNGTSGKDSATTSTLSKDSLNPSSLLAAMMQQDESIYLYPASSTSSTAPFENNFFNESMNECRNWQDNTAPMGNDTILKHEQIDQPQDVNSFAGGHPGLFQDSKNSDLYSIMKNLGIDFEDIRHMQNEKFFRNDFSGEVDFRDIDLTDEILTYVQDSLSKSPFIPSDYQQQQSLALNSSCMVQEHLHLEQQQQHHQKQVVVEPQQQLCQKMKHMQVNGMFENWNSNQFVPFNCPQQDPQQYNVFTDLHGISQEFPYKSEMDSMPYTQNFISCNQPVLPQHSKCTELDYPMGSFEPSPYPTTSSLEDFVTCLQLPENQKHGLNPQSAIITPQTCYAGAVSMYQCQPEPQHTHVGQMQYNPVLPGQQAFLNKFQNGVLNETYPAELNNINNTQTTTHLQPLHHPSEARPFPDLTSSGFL
Briefly: EROD assay (7-ethoxy-resorufin-O-deethylase; CYP1A1 activity) in human HepG2 cells. Format: cell-based. The following applies: for EC90: HepG2, human HepG2 cells; for EC90 / EC50: Plate 2; for fold more potent than ARI-164 by EC50 / fold more potent than ARI-164 by EC90 / EC50: human HepG2 cells. As for the experimental part:
CYP1A1 induction is under the control of the AhR signaling pathway. This Example describes an in vitro assay (7-ethoxy-resorufin-O-deethylase (EROD) assay) that evaluated the AhR modulating activities of the indole compounds described herein. In this assay, the indole compounds were incubated with human HepG2 cells or mouse Hepa1-6 cells. The activity of CYP1A1 in the cells was measured by the conversion of substrate 7-ethoxyresorufin, with the readout being a fluorescence signal associated with the conversion product. The EC50 values of the indole compounds as well as the maximum luminescence induced by them in the assay were determined.
Human HepG2 cells were obtained from Sigma Aldrich (Catalog 85011430-1VL).
Human HepG2 cells were grown to 60-80% confluency in tissue culture flasks, lifted with non-enzymatic cell dissociation solution (cell stripper), seeded in a 384-well plate at 5,000 cells per well, treated with the test compounds, and incubated for 20 hours overnight at 37° C. The treatment medium was removed and a solution of substrate 7-ethoxyresorufin (ETX) was added to initiate the reaction. The plate was incubated at 37° C. for 30 minutes. The reaction was subsequently terminated by adding tempered methanol. Fluorescent emission was measured at 590 nm with excitation at 530 nm in a FLEXSTATION III instrument (Molecular Devices).

The nature of data set [2]: CYP profiling: turnover in human liver microsomes, 30 min, no inhibitor. Type of data set: in vitro ADME. The arrangement: % Compound Metabolized at 30 min, No Inhibitor: concentration or dose not given beside the values. The note with it: HLMs. The protocol:
(§1) In order to investigate the contributions of CYP1A2 and CYP3A4 to the metabolism of the compounds of the present disclosure, human liver microsomes were incubated with the test compounds for 30 minutes in the presence of selective chemical inhibitors furafylline (1A2) and ketoconazole (3A4).
(In general: Microsomes from liver hold many membrane-bound enzymes, among them those of drug oxidation.)

Data set [3] addresses T2, CYP3A4 (Homo sapiens, UniProt P08684).
T2 construct: from tissue; host or cells: human liver microsomes
Briefly: CYP profiling: human liver microsomes with CYP3A4 inhibitor ketoconazole. Type of data set: in vitro ADME. The arrangement: % Compound Metabolized at 30 min, CYP3A4 Inhibitor: concentration or dose not given beside the values. The following applies: HLMs; for % Inhibition Relative to Negative Control, 3A4: 30 min. The protocol:
as §1

Data set [4] deals with T3, CYP1A2 (Homo sapiens, UniProt P05177).
T3 construct: from tissue; host or cells: human liver microsomes
T3 sequence (P05177 1-516): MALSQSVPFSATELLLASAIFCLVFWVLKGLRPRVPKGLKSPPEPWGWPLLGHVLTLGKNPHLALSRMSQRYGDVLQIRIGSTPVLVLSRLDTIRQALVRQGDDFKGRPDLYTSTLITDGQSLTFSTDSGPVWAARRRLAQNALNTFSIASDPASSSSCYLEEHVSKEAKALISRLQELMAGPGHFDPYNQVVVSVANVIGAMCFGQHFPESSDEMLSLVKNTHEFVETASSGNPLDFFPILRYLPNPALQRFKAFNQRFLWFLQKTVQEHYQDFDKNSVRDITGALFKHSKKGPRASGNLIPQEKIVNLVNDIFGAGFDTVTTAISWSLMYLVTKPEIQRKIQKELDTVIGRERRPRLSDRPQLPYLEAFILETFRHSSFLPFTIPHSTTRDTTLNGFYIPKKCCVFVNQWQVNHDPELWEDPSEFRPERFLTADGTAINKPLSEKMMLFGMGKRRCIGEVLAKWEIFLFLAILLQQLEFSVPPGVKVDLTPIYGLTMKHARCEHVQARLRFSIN
Briefly: CYP profiling: human liver microsomes with CYP1A2 inhibitor furafylline. Format: in vitro ADME. Details: % Compound Metabolized at 30 min, CYP1A2 Inhibitor: concentration or dose not given beside the values. The following applies: HLMs; for % Inhibition Relative to Negative Control, 1A2: 30 min. The protocol: as §1

T2 sequence (P08684 whole entry): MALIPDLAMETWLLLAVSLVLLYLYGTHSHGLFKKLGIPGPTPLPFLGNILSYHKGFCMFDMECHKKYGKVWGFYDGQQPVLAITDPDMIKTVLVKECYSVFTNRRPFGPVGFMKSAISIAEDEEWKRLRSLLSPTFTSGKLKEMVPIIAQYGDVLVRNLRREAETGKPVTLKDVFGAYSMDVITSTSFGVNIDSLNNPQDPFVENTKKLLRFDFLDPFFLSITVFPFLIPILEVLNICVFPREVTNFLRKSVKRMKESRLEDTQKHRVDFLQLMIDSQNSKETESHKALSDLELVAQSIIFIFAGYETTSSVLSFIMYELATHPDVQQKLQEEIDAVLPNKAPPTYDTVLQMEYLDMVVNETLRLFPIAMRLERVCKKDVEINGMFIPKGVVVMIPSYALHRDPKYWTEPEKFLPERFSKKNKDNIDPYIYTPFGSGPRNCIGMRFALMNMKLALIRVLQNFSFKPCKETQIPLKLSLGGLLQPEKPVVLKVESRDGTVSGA

Regarding `N[C@@H](c1csc(C(=O)c2c[nH]c3cc(F)ccc23)n1)C(F)(F)F` [ARI-224], in data set [1], the EC90 turned out to be 152 nM; the “fold more potent than ARI-164 by EC50” value was 3.1 ×; the “fold more potent than ARI-164 by EC90” value stood at 0.90 ×; the midpoint of the response, the EC50, lay at 33.7 nM. Further, in data set [2], the “% Compound Metabolized at 30 min, No Inhibitor” value was found to be 9% and the “metabolic turnover (in words)” value is listed as “low turnover”. Further, in data set [3], the “% Compound Metabolized at 30 min, CYP3A4 Inhibitor” value was found to be 8% and the “% Inhibition Relative to Negative Control, 3A4” value was found to be 11%. For the same molecule, in data set [4], the “% Compound Metabolized at 30 min, CYP1A2 Inhibitor” value worked out at 7% and the “% Inhibition Relative to Negative Control, 1A2” value is recorded as 22%.
Regarding `NC1(c2csc(C(=O)c3c[nH]c4cc(F)ccc34)n2)CC1` [ARI-225, (4-(1-aminocyclopropyl)thiazol-2-yl)(6-fluoro-1H-indol-3-yl)methanone], in data set [1], the EC90 came to 109 nM and the EC50 worked out at 46.8 nM. Further, in data set [2], the “% Compound Metabolized at 30 min, No Inhibitor” value stood at 39% and the “metabolic turnover (in words)” value is reported as “high turnover”. Besides, in data set [3], the “% Compound Metabolized at 30 min, CYP3A4 Inhibitor” value came out at 29% and the “% Inhibition Relative to Negative Control, 3A4” value is 26%. In addition, in data set [4], the “% Compound Metabolized at 30 min, CYP1A2 Inhibitor” value is 10% and the “% Inhibition Relative to Negative Control, 1A2” value is listed as 74%.
Turning to `CC(C)(N)c1csc(C(=O)c2c[nH]c3cc(F)ccc23)n1` [ARI-226, (4-(2-aminopropan-2-yl)thiazol-2-yl)(6-fluoro-1H-indol-3-yl)methanone], in data set [1], the EC90 stood at 33 nM, the “fold more potent than ARI-164 by EC50” value is recorded as 4.2 ×, the “fold more potent than ARI-164 by EC90” value amounted to 4.2 × and a half-maximal effect (EC50) was put at 24.6 nM. Besides, in data set [2], the “% Compound Metabolized at 30 min, No Inhibitor” value was 6% and the “metabolic turnover (in words)” value is “low turnover”. Further, in data set [3], the “% Compound Metabolized at 30 min, CYP3A4 Inhibitor” value was 11% and the “% Inhibition Relative to Negative Control, 3A4” value is on record as “None”. For the same molecule, in data set [4], the “% Compound Metabolized at 30 min, CYP1A2 Inhibitor” value was 16% and the “% Inhibition Relative to Negative Control, 1A2” value is on record as “None”.
On to `N[C@H](c1csc(C(=O)c2c[nH]c3ccccc23)n1)C(F)(F)F` [ARI-228], for which, in data set [1], it took 217 nM to reach the 90% level (EC90) and it took 65.6 nM to reach a half-maximal effect (EC50). In data set [2], the “% Compound Metabolized at 30 min, No Inhibitor” value amounted to 89% and the “metabolic turnover (in words)” value is “high turnover”. In data set [3], the “% Compound Metabolized at 30 min, CYP3A4 Inhibitor” value amounted to 75% and the “% Inhibition Relative to Negative Control, 3A4” value was determined as 16%. For the same molecule, in data set [4], the “% Compound Metabolized at 30 min, CYP1A2 Inhibitor” value is listed as 23% and the “% Inhibition Relative to Negative Control, 1A2” value was found to be 74%.
In the case of `N[C@@H](c1csc(C(=O)c2c[nH]c3ccccc23)n1)C(F)(F)F` [ARI-229], in data set [1], the 90% effect level (EC90) was put at 204 nM and the midpoint of the response, the EC50, lay at 50.3 nM. The “% Compound Metabolized at 30 min, No Inhibitor” value in data set [2] was determined as 0%. In data set [3], the “% Compound Metabolized at 30 min, CYP3A4 Inhibitor” value is given as 0% and the “% Inhibition Relative to Negative Control, 3A4” value is given as “None”. Also, in data set [4], the “% Compound Metabolized at 30 min, CYP1A2 Inhibitor” value was determined as 0% and the “% Inhibition Relative to Negative Control, 1A2” value is reported as “None”.

For the origin of these results see patent publication US11390621B2, “Chiral indole compounds and their use” (ARIAGEN, INC., priority 2019, dated 2022).
